Source: patent US10501479B2, “Benzenesulfonyl-asymmetric ureas and medical uses thereof” (HELSINN HEALTHCARE SA, priority 2016, dated 2019)
Values joined by “and” are separate entries in the source; they are usually repeats but may differ in a detail not shown here. Identical values can stand only once. Like-named read-outs stand apart in the source and are kept apart here.

What was measured:
[1] = Metabolic stability in human liver microsomes; type: in vitro ADME
Outline: (§1)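 First, microsomes and compound are preincubated 5 min at 37 °C in pH 7.4 phosphate buffer. Next, an NADPH regenerating system starts the reaction. Then aliquots are quenched cold at 10, 30 and 90 min, centrifuged and analysed by LC-MS/MS.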

[2] = Metabolic stability in mouse liver microsomes; type: in vitro ADME
Outline: as §1

[3] = biological target: T1, GHSR-1a (HEK293/GHSR1a cell line) (Homo sapiens, UniProt Q92847); assay: Ghrelin antagonist potency (IC50) with calcium FLIPR assay, ghrelin 10 nM; type: cell-based
T1 construct: expressed in transfected cells; host or cells: HEK293/GHSR1a cell line
T1 sequence (Q92847 whole entry): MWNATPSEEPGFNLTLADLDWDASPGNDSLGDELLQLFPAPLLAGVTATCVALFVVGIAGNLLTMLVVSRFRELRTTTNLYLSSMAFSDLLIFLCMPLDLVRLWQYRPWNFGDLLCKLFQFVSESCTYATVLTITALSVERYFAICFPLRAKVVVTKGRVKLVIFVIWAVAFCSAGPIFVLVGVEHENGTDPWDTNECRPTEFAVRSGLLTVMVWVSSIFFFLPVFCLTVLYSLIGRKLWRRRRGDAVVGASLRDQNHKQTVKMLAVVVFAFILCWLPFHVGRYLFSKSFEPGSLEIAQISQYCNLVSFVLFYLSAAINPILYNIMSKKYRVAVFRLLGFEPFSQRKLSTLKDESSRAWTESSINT
Outline: (§2)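 The cells were plated a day ahead and loaded with a calcium-sensitive dye. Test compound was then added and incubated 15 min, followed by ghrelin. Antagonist potency was calculated from inhibition of the response to 10 nM ghrelin, and agonist potency from the calcium rise caused by compound alone.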

[4] = biological target: T1, GHSR-1a (HEK293/GHSR1a cell line); assay: Ghrelin agonist potency (EC50) with calcium FLIPR assay; type: cell-based
Outline: as §2

[5] = biological target: T2, recombinant human ghrelin receptor (HEK293/GRLN) (Homo sapiens, UniProt Q92847); assay: Ghrelin inverse agonist potency (EC50) with IP-1 (IP-One HTRF) assay; type: cell-based; settings: IP-1 assay
T2 construct: expressed in transfected cells
T2 sequence (Q92847 whole entry): as above
Outline: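 IP-1 accumulation was measured by HTRF (IP1-d2/Tb-cryptate, 620/665 nm read after 1 hour at room temperature) following 1 hour of compound treatment at 37° C. Cells were HEK293 stably expressing human ghrelin receptor, plated a day earlier on Matrigel. Inverse agonist potency was reported as EC50.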

[6] = Animal PK study in mouse via i.v., p.o. and s.c. administration; type: in vivo
Description: All treated animals received a single dose of a test compound (either through i.v., p.o., or s.c. administration) according to the regimen shown in the following table:
For oral dose groups, appropriate amount of test compound was prepared in the following formulation carrier: 1% DMSO (increase to 5% maximum if necessary) and 0.5% Methycellulose. Each mouse or rat received by oral gavage 10 mL/kg of the formulation mixture.
For i.v. and s.c dose groups, appropriate amount of test compound was dissolved in 1% DMSO (increase to 5% maximum if necessary), 99% of 20% HP-β-Cyclodextron (w/v). The pH was adjusted accordingly. Each mouse or rat received 5 mL/kg of the formulation mixture. i.v. dose was administered by tail vein injection. Subcutaneous injection was administered over the shoulders, into the loose skin over the neck. At designated time points (e.g., i.v. and s.c.: 0.083, 0.25, 0.5, 1, 2, 4, 8 and 24 hrs; p.o.: 0.25, 0.5, 1, 2, 4, 8 and 24 hrs), systemic samples of blood (50 μL in mouse or 500 μL in rat) were collected by puncture (submandibular vein in mouse or jugular vein in rat) into vacutainers containing EDTA-K2 as anti-coagulant. The blood was centrifuged at 6000 rpm for 8 min at 4° C. to obtain plasma. All plasma samples were stored at −20° C. All plasma samples were added to acetonitrile for protein precipitation and quantitatively analyzed by LC-MS/MS.

[7] = Animal PK study in rat via i.v., p.o. and s.c. administration; type: in vivo; settings: rat (R), i.p.; for half-life: plasma, ip, read-out: PK T1/2 i.p.
[8] = HEK293/GHSR1a, ghrelin 10 nM, read-out: Activity IC50 (ghrelin antagonist potency)
[9] = HEK293/GHSR1a, read-out: Activity EC50/EMax: EC50 (ghrelin agonist potency)
[10] = HEK293/GRLN, read-out: Activity EC50 (ghrelin inverse agonist potency)
[11] = ghrelin antagonist potency, read-out: Activity IC50
[12] = ghrelin agonist potency, read-out: Activity EC50/EMax
[13] = ghrelin inverse agonist potency, read-out: Activity EC50
[14] = ghrelin antagonist potency, read-out: IC50 (Activity)
[15] = inverse agonist potency, read-out: EC50 (Activity)

SMILES | Metabolic Stability Study H = human [1] | Metabolic Stability Study M = mouse [2] | IC50 [3, 8] [nM] | EC50 [4, 9] [nM] | EC50 [5, 10] [nM] | PK F [6] [%] | IC50 [3, 14] [nM] | PK CLiv ([6]; i.v.) [mL/min/kg] | PK Vdiv ([6]; i.v.) [L/kg] | PK t1/2iv ([6]; i.v.) [h] | PK CLpo ([6]; p.o.) [mL/min/kg] | PK Vdpo ([6]; p.o.) [L/kg] | PK t1/2po ([6]; p.o.) [h] | other results
CC(NC(=O)Nc1ccc(S(=O)(=O)Cc2ccc3c(c2)CN(C)C3)cc1O)c1ccccc1 (centres unmarked) [H1448, 1-(2-hydroxy-4-(((2-methylisoindolin-5-yl)methyl)sulfonyl)phenyl)-3-(1-phenylethyl)urea] | 28 µL/min/mg | 20.8 µL/min/mg | 30.3 | > 30000 | 3.3 | 1.90 | – | – | – | – | – | – | – | PK CL p.o. ([6]; p.o.): 4243 mL/min/kg; PK Vd p.o. ([6]; p.o.): 242.2 L/kg; Vd ([6]; plasma, iv, 5 mg/kg): 9.26 L/kg; clearance ([6]; plasma, iv, 5 mg/kg, i.v., read-out: PK CL i.v.): 80.5 mL/min/kg; half-life ([6]; plasma, iv, 5 mg/kg, i.v., read-out: PK t1/2 i.v.): 1.33 h; half-life ([6]; plasma, po, 10 mg/kg, p.o., read-out: PK t1/2 p.o.): 0.66 h
CC(c1ccccc1)N(O)C(=O)Nc1ccc(S(=O)(=O)Cc2ccc3c(c2)CNC3)cc1 (centres unmarked) [H1472, 1-hydroxy-3-(4-((isoindolin-5-ylmethyl)sulfonyl)phenyl)-1-(1-phenylethyl)urea] | – | – | – | – | – | – | – | – | – | – | – | – | – | IC50 [3, 11]: 6 nM; EC50 [4, 12]: > 30000 nM; EC50 [5, 13]: 3.25 nM; half-life [7]: 2.43 h; PK CL i.p. [7]: 36.5 mL/min/kg; PK Vd i.p. [7]: 7.71 L/kg
C[C@H](NC(=O)Nc1ccc(S(=O)(=O)Cc2ccc(CC(C)(C)N(C)C)cc2)cc1)c1cccc(Cl)c1Cl [H1010, (S)-1-(1-(2,3-dichlorophenyl)ethyl)-3-(4-((4-(2-(dimethylamino)-2-methylpropyl)benzyl)sulfonyl)phenyl)urea] | H = 40.5 M = 40.5 R = not reported D = not reported μL/min/mg | H = 40.5 M = 40.5 R = not reported D = not reported μL/min/mg | – | – | – | 3.09 | 42 | 55.7 | 1.39 | 1.39 | 1803 | 169 | 1.08 | EC50 [5, 15]: 15 nM
CC(NC(=O)Nc1ccc(S(=O)(=O)Cc2ccc3c(c2)CN(CC2CC2)C3)cc1)c1ccccc1 (centres unmarked) [H1220, 1-(4-(((2-(cyclopropylmethyl)isoindolin-5-yl)methyl)sulfonyl)phenyl)-3-(1-phenylethyl)urea] | 183.8 µL/min/mg | 248 µL/min/mg | – | – | – | 4.71 | 3.61 | 50.8 | 3.08 | 0.7 | 1030 | 78.7 | 0.89 | EC50 [5, 15]: 30.4 nM
COc1ccc([C@H](C)NC(=O)Nc2ccc(S(=O)(=O)Cc3ccc4c(c3)CCN(C(C)=O)C4)cc2)c(Cl)c1Cl [H1025, (S)-1-(4-(((2-acetyl-1,2,3,4-tetrahydroisoquinolin-6-yl)methyl)sulfonyl)phenyl)-3-(1-(2,3-dichloro-4-methoxyphenyl)ethyl)urea] | 92.4 µL/min/mg | 159.5 µL/min/mg | – | – | – | 5.92 | 21400 | 30.7 | 2.86 | 1.08 | 514.8 | 94.83 | 1.45 | –
COc1cc(NC(=O)NC(C)c2ccccc2)ccc1S(=O)(=O)Cc1ccc2c(c1)CNC2 (centres unmarked) [H1461, 1-(4-((isoindolin-5-ylmethyl)sulfonyl)-3-methoxyphenyl)-3-(1-phenylethyl)urea] | 22.0 µL/min/mg | < 10 µL/min/mg | – | – | – | – | – | – | – | – | – | – | – | IC50 [3, 11]: 7.9 nM; EC50 [4, 12]: > 30000 nM; EC50 [5, 13]: 3.5 nM; half-life [7]: 2.61 h; PK CL i.p. [7]: 38.3 mL/min/kg; PK Vd i.p. [7]: 8.64 L/kg
O=C(NCc1ccccc1Cl)Nc1ccc(S(=O)(=O)Cc2ccc3c(c2)CCNC3)cc1 [H1039, 1-(2-chlorobenzyl)-3-(4-(((1,2,3,4-tetrahydroisoquinolin-6-yl)methyl)sulfonyl)phenyl)urea] | < 10 µL/min/mg | 13.5 µL/min/mg | – | – | – | 0.6 | 113 | 42.5 | 11.7 | 3.18 | 5573 | 898 | 1.86 | EC50 [5, 15]: 33.3 nM
COc1cc(S(=O)(=O)Cc2ccc3c(c2)CNC3)ccc1NC(=O)N(C)C(C)c1ccccc1 (centres unmarked) [H1398, 3-(4-((isoindolin-5-ylmethyl)sulfonyl)-2-methoxyphenyl)-1-methyl-1-(1-phenylethyl)urea] | 52.9 µL/min/mg | 80.5 µL/min/mg | 629 | > 30000 | 62.6 | – | – | – | – | – | – | – | – | –
COc1cc(S(=O)(=O)Cc2ccc3c(c2)CN(C)C3)ccc1NC(=O)NC(C)c1cccc2ccccc12 (centres unmarked) [H1425, 1-(2-methoxy-4-(((2-methylisoindolin-5-yl)methyl)sulfonyl)phenyl)-3-(1-(naphthalen-1-yl)ethyl)urea] | 310.0 µL/min/mg | 141.5 µL/min/mg | 8.1 | > 30000 | 1.8 | – | – | – | – | – | – | – | – | –
CC(NC(=O)Nc1ccc(S(=O)(=O)Cc2cc3c(s2)CN(C)CC3)cc1)c1cccc(Cl)c1Cl (centres unmarked) [H1384, 1-(1-(2,3-dichlorophenyl)ethyl)-3-(4-(((6-methyl-4,5,6,7-tetrahydrothieno[2,3-c]pyridin-2-yl)methyl)sulfonyl)phenyl)urea] | 95.1 µL/min/mg | 165.1 µL/min/mg | 5.95 | > 30000 | 2.4 | – | – | – | – | – | – | – | – | –
CC(NC(=O)Nc1ccc(S(=O)(=O)Cc2ccc3c(c2)CNC3)cc1)c1cccc2ccccc12.Cl (centres unmarked) [H1149, 1-(4-((isoindolin-5-ylmethyl)sulfonyl)phenyl)-3-(1-(naphthalen-1-yl)ethyl)urea] | 21.1 µL/min/mg | 24.3 µL/min/mg | – | – | – | 0.86 | 4.8 | 16.3 | 1.22 | 0.87 | 1792 | 272 | 1.75 | EC50 [5, 15]: 1.69 nM and 2.41 nM
CC(NC(=O)Nc1ccc(S(=O)(=O)Cc2ccc3c(c2)CNC3)cc1F)c1ccccc1F.Cl (centres unmarked) [H1389, 1-(2-fluoro-4-((isoindolin-5-ylmethyl)sulfonyl)phenyl)-3-(1-(2-fluorophenyl)ethyl)urea] | 21.3 µL/min/mg | 21.2 µL/min/mg | 27.6 | > 30000 | 15.1 | – | – | – | – | – | – | – | – | –
CC(NC(=O)Nc1ccc(S(=O)(=O)Cc2cnc3c(c2)CN(C)C3)cc1)c1ccccc1 (centres unmarked) [H1323, 1-(4-(((6-methyl-6,7-dihydro-5H-pyrrolo[3,4-b]pyridin-3-yl)methyl)sulfonyl)phenyl)-3-(1-phenylethyl)urea] | 84.1 µL/min/mg | 58.5 µL/min/mg | 243 | > 30000 | 102 | – | – | – | – | – | – | – | – | –
COc1cc(S(=O)(=O)Cc2ccc3c(c2)CN(C)C3)ccc1NC(=O)N(O)C(C)c1ccccc1 (centres unmarked) [H1518, 1-hydroxy-3-(2-methoxy-4-(((2-methylisoindolin-5-yl)methyl)sulfonyl)phenyl)-1-(1-phenylethyl)urea] | 151.1 µL/min/mg | 154.7 µL/min/mg | – | – | – | – | – | – | – | – | – | – | – | IC50 [3, 11]: 27.4 nM; EC50 [4, 12]: > 30000 nM; EC50 [5, 13]: 7.8 nM
